Measured values from patent US20160030459A1, “COMPOSITIONS AND METHODS FOR TREATING ALLERGIC CONDITIONS” (IMMUNE DESIGN CORP., priority 2014, published 2016).

Legend:
various human cell types = assay: Effect of GLA adjuvant in vitro on cytokine expression of human cells; type: cell-based
Procedure: (§1) The effect of GLA adjuvant in vitro on various human cell types was evaluated.

[1] = test system: dendritic cells (both myeloid and monocyte-derived); assay: Activation and maturation of dendritic cells in vitro; type: cell-based, human
Procedure: as §1

[2] = test system: Male cynomolgus macaques with a known sensitivity to inhaled Ascaris suum; assay: Primate model of allergic rhinitis, intranasal adjuvant; type: in vivo, cynomolgus macaque
Procedure: GLA adjuvant was evaluated in a nonhuman primate allergic rhinitis model. Male cynomolgus macaques with a known sensitivity to inhaled Ascaris suum were treated with a composition comprising a GLA adjuvant, in an aqueous formulation, via intranasal delivery.
12 animals were assigned randomly to each of vehicle or drug treatment groups. The drug treatment group received 100 μl of a composition containing 5.0 μg GLA adjuvant in an aqueous formulation, intranasally in each nostril, for a total dose of 10 μg. The vehicle group received 100 μl of vehicle in each nostril. The adjuvant or vehicle was administered intranasally once weekly for 4 consecutive weeks. All intranasal dosing was administered using a Penn Century Microsprayer.
The animals were challenged with Ascaris suum into the left nostril concurrent with treatment on days 0 and 14 (at the first and third treatment times).
Animals with severe rhinitis have reduced nasal area or increased nasal congestion as compared to those with improved response and increased nasal area or decreased nasal congestion. Nasal lavage samples were also obtained and total and differential cell count were evaluated.
Briefly, animals were sedated and placed on a ventilator. Blood samples were drawn. A baseline Acoustic Rhinometer measurement (nasal volume and nasal minimum cross-sectional area) was taken in the left nostril followed by instillation of 100 μl saline using a microspayer. After instillation of saline, Acoustic Rhinometry measurements (nasal volume and nasal minimum cross-sectional area) were taken at 2 minutes. Next 100 μl of A. suum (10.0 mg/ml) was instilled into the left nostril using a microsprayer and Acoustic Rhinometry measurements were taken at 1, 2, 3 minutes. Fifteen minutes after A. suum challenge a nasal lavage was performed using 3.0 ml saline injected into the left nostril. After nasal lavage, sedation was reversed.
Total cell count in the nasal lavage samples was determined using the Advia120 hematology analyzer (SOP BW-INM-Resp-SOP-09033). Differential cell counts were performed with cystospins manually on 200 cells using standard morphological criteria.

OVA-sensitized mice = assay: Prophylactic dosing regimens in murine model of allergy; type: in vivo, mouse
Procedure: Three different prophylactic dosing regimens of GLA adjuvant, in an aqueous formulation, were evaluated in the same murine model of allergy described in Example 2. Mice were divided into three treatment arms (20 mice per group), treated as follows starting at 1 week post OVA sensitization, and then challenged with OVA or saline (negative control):
Vehicle-treated at day 14; Saline challenged (negative control) Vehicle-treated at day 14; OVA challenged (positive control) GLA-treated at day 14, with a single dose of GLA (2 ug/animal, i.n.); OVA challenged GLA-treated on days 14, 15, 16, 17, with 4 doses of GLA on consecutive days (each dose 2 ug/animal, i.n.); OVA challenged GLA+Ag-treated on day 14, single dose GLA (2 ug/animal, i.n.)+OVA antigen (20 ug/animal, i.n.); OVA challenged
The animals were challenged with OVA or saline i.n. for 4 consecutive days, 5-7 days post treatment (at days 22, 23, 24 and 25). Airway hyperresponsiveness (AHR) was determined at 1 or 2 days post challenge (the large number of animals required two days to complete the AHR testing). Bronchoalveolar lavage fluid (BALF), thoracic lymph nodes and spleen were collected for FACS & cytokine analysis, and serum was collected for IgE and IgG levels.

[3] = test system: Male Balb/c mice sensitized with OVA; assay: Murine model of chronic allergy (OVA-induced airway inflammation and hyperreactivity); type: in vivo, mouse
Procedure: The effect of GLA was evaluated in a chronic model Of OVA-induced airway inflammation and airway hyperreactivity in mice. Male Balb/c mice were sensitized systemically with OVA i.p. over a 2 week period (days 0 & 14). One week later, they were challenged with OVA i.n for 3 consecutive days (days 22 through 24). The animals were then treated once with GLA, in an aqueous formulation, i.n., 1 day post-challenge (day 25) as follows (20 mice per group):
Vehicle-treated; Saline challenged (negative control) Vehicle-treated; OVA challenged (positive control) GLA-treated, single dose (2 ug/animal, i.n.); OVA challenged
The animals were challenged again with OVA i.n. 1 month later (days 55 & 56). AHR as described above in Example 2 was performed 1-2 days post 2nd challenge (the large number of animals required two days to complete the AHR testing). Bronchoalveolar lavage fluid (BALF), thoracic lymph nodes and spleen were collected for FACS & cytokine analysis, and serum was collected for IgE and IgG levels.

[4] = test system: Male cynomolgus macaques with a known sensitivity to inhaled Ascaris suum; assay: Primate model of allergic rhinitis, intramuscular adjuvant; type: in vivo, cynomolgus macaque; conditions: GLA 10 ug intramuscularly, four weekly doses; ascaris antigens intranasally
Procedure: GLA adjuvant was evaluated in a nonhuman primate allergic rhinitis model. Male cynomolgus macaques with a known sensitivity to inhaled Ascaris suum were treated with a composition comprising a GLA adjuvant, in an oil-based emulsion formulation, with and without allergen, via intramuscular delivery.
Animals (n=12) were treated with four doses of GLA (10 ug) at weekly intervals and were exposed to Ascaris suum antigens at the same time. The evaluation of the response was determined by acoustic rhinometry which measured the nasal area as an indication of congestion Animals with severe rhinitis have reduced nasal area or increased nasal congestion as compared to those with improved response and increased nasal area or decreased nasal congestion.
In this study, animals treated with GLA-SE were compared with animals treated with SE alone. In addition, ascaris antigens in conjunction with GLA were tested. Ascaris antigens were either delivered in combination with GLA via the intramuscular route of administration, or were delivered intranasally separate from the intramuscular GLA treatment.

[5] = test system: mice presensitized with intra-gastric RPE; assay: Murine model of peanut allergy, related study with GLA-SE +/- peanut extract; type: in vivo, mouse; conditions: with or without antigen, s.c.
Procedure: In a related study, mice were presensitized with intra-gastric RPE six times at days 0, 1, 2, 7, 14 and 21 (FIG. 15). On days 29, 35, 42 and 49, mice were treated subcutaneously with 2 ug GLA-SE or 2 ug GLA-SE+50 ug RPE. Mice were subsequently challenged by intraperitoneal administration on study day 55 with 12 mg RPE. Anaphylaxis scores and body temperature of mice were then measured. […] Disease scoring was as follows: 1: mild anaphylaxis (scratching, mild snout swelling); 2: Moderate anaphylaxis (mod swelling, mild lethargy) 3: =Severe anaphylaxis (severe swelling, lethargy); 4: Very severe anaphylaxis (moribund, labored breathing); 5: Death.

[6] = test system: PBMCs from peanut allergic subjects; assay: T cell proliferation and cytokine expression of PBMCs from peanut-allergic subjects; type: cell-based, human
Source text: PBMCs were collected from peanut allergic and non-allergic subjects (n=4) and evaluated for T cell proliferation and cytokine expression after exposure to peanut extract and GLA. […] In addition, these samples had increased tolerogenic IL-10 expression and […] IL-2 expression indicative of inhibition of T cell proliferation.

[7] = test system: PBMCs from Timothy Grass allergic subjects; assay: Cytokine expression of PBMCs from Timothy grass-allergic subjects; type: cell-based, human; conditions: Timothy grass allergen and GLA
Source text: PBMCs were collected from Timothy Grass allergic and non-allergic subjects and evaluated for T cell cytokine expression after exposure to Timothy grass allergen and GLA. As shown in FIG. 16A-16D, GLA decreased IL-5 and increased IFN-γ, IL-12 and TNF-alpha cytokine response to Timothy grass allergen.

[8] = treatment period (weeks 1-4) and 4 weeks post treatment (weeks 5-8)
[9] = 4 doses on days 14, 15, 16, 17, each 2 ug/animal i.n.
[10] = single dose day 14, 2 ug/animal i.n.
[11] = Day 1 after peanut extract and GLA exposure

With `CCCCCCCCCCCCCC(=O)OC(CCCCCCCCCCC)CC(=O)NC1C(OCC2OC(O)C(NC(=O)CC(O)CCCCCCCCCCC)C(OC(=O)CC(O)CCCCCCCCCCC)C2O)OC(CO)C(OP(=O)(O)O)C1OC(=O)CC(CCCCCCCCCCC)OC(=O)CCCCCCCCCCCCC` (centres unmarked) [GLA, glucopyranosyl lipid A] the GM-CSF expression (various human cell types) was “induced expression”, the IL-1β expression (various human cell types) was “induced expression” and the IL-6 expression (various human cell types) was “induced expression”. The IL-8 expression (various human cell types) was “induced expression”, the IL-10 expression (various human cell types) was “induced expression” and the TNF-α expression (various human cell types) was “induced expression”. The “activation and maturation of dendritic cells” value [1] was “induced activation and maturation”, the “percentage of baseline nasal cross sectional area” value ([2]; 10 μg intranasal once weekly for 4 weeks, compared with vehicle) was “increased” and the antigen-induced nasal congestion ([2]; aqueous formulation, 10 μg intranasal once weekly for 4 weeks, A. suum challenge) was “reduced”. The “differential cell count (lymphocyte, monocyte, granuolocyte, neutrophil, eosinophil or basophil cell numbers)” value [2, 8] was “not altered”, the platelet counts [2, 8] was “did not alter” and the “red blood cell counts” value [2, 8] was “did not alter”. The “white blood cell counts” value [2, 8] was “did not alter”, the “CD3+ T cells in BALF” value (OVA-sensitized mice; [9]) was “decreased” and the “eosinophil in BALF” value (OVA-sensitized mice; [9]) was “decreased”. For the same compound, the “total leukocytes in BALF” value (OVA-sensitized mice; [9]) was “decreased”, the “cellularity systemically, in spleen or lymph nodes” value (OVA-sensitized mice; i.n. GLA treatment) was “did not alter” and the “numbers of CD3+ T cells in BALF” value (OVA-sensitized mice; [10]) was “did not alter”. The “numbers of eosinophils in BALF” value (OVA-sensitized mice; [10]) was “did not alter”, the “numbers of macrophages in BALF” value (OVA-sensitized mice; [10]) was “did not alter” and the “leukocyte cell count in BALF (including eosinophil, macrophage or CD3+ T cell counts)” value ([3]; single dose 2 ug/animal i.n.) was “did not alter”. The “time after GLA dosing for which effects could be observed” value ([3]; single dose 2 ug/animal i.n.) was “at least 1 month”, the airway hyperresponsiveness ([3]; single dose 2 ug/animal i.n. day 25, 1 month before allergen challenge) was “attenuate” and the “IL-4 expression in the airway after allergen challenge” value ([3]; single dose 2 ug/animal i.n. one month before allergen challenge) was “attenuate”. The nasal rhinitis scores [4] was “did not improve”, the “peanut allergy in a mouse model” value [5] was “attenuates” and the “IL12p70 (IL-12) expression” value [6, 11] was “increased”. The IL-2 expression [6, 11] was “increased”, the interferon gamma expression [6, 11] was “increased” and the “tolerogenic IL-10 expression” value [6, 11] was “increased”. For the same compound, the “CD4 T cell proliferation” value ([6]; Day 6 after exposure to peanut extract and GLA) was “dose-dependent antigen specific inhibition”, the “IL-12 cytokine response to Timothy grass allergen” value ([7]; 2 day culture) was “increases” and the “TNF-alpha cytokine response to Timothy grass allergen” value ([7]; 2 day culture) was “increases”. The “IFN-γ cytokine response to Timothy grass allergen” value ([7]; 6 day culture) was “increases” and the “IL-5 cytokine response to Timothy grass allergen” value ([7]; 6 day culture) was “decreases”.
